Tests used:
[1] = system: Diamondback Moth, Plutella xylostella; test: Diamondback moth percent control on treated cabbage leaf discs (track sprayer), synergy by Colby's equation; format: in vivo
Description: (§1) The method described in Colby S. R., “Calculating Synergistic and Antagonistic Responses of Herbicide Combinations,” Weeds, 1967, 15, 20-22 was used to determine an existence of synergic effect between the ecdysone receptor agonist compound and the pesticide in the formulated pesticidal composition. In this method, the percent insect control of the formulated pesticidal composition as observed in the study was compared to the “expected” percent control (E) as calculated by equation (1) (hereinafter “Colby's equation”) below: […]
(§2) X is the percentage of control with the first pesticide at a given rate (p),
(§3) Y is the percentage of control with the second pesticide at a given rate (q), and
E is the expected control by the first and second pesticide at a rate of p+q.
Bioassays were performed for different active compounds. […] The “Colby's Expected Action” was calculated using Colby's equation as discussed previously.
(§4) Bioassays were performed for different active compounds. […] The “Colby's Expected Action” was calculated using Colby's equation as discussed previously. […]
as §4

[2] = system: Cotton Aphid, Aphis gossypii (Glover); test: Cotton aphid percent control on treated cotton plants (track sprayer), synergy by Colby's equation; format: in vivo; settings: cotton plants at cotyledon stage
Description: as §1, §2, §3
E is the expected control by the first and second pesticide at a rate of p+q. […]
Cotton plants at cotyledon stage were treated with different active compounds using track sprayer. […] The percent control of the pesticidal composition against cotton aphid, Aphis gossypii (Glover), was determined as the “Observed” action, and compared to those obtained by using about 0.002 weight % of compound II, and using about 0.005 weight % of methoxyfenozide alone. The “Colby's Expected Action” was calculated using Colby's equation as discussed previously.

## CCN(C(=O)CCSCCC(F)(F)F)c1cn(-c2cccnc2)nc1Cl [Compound I, N-(3-chloro-1-(pyridin-3-yl)-1H-pyrazol-4-yl)-N-ethyl-3-((3,3,3-trifluoropropyl)thio)propanamide]
[1]; Compound I alone (1:0), average of 0.0025, 0.000625 and 0.0001531 weight %
  Average % Control Five Days After Treatment: 7.58%

## CCN(C(=O)CC[S+]([O-])CCC(F)(F)F)c1cn(-c2cccnc2)nc1Cl (stereo not shown) [Compound II, N-(3-chloro-1-(pyridin-3-yl)-1H-pyrazol-4-yl)-N-ethyl-3-((3,3,3-trifluoropropyl)sulfinyl)propanamide]
[2]; Compound II alone, dose rate 0.002 weight %
  % Control Three Days After Treatment: 28%

## COc1cccc(C(=O)NN(C(=O)c2cc(C)cc(C)c2)C(C)(C)C)c1C [Methoxyfenozide, 3-methoxy-2-methylbenzoic acid 2-(3,5-dimethylbenzoyl)-2-(1,1-dimethylethyl)hydrazide]
[1]; Methoxyfenozide alone (0:1), average of 0.02, 0.005, 0.00125 and 0.0003125 weight %
  Average % Control Five Days After Treatment: 15.9%
[2]; Methoxyfenozide alone, dose rate 0.005 weight %
  % Control Three Days After Treatment: 23%

From patent US9295258B2, “Synergistic pesticidal compositions and related methods” (DOW AGROSCIENCES LLC, priority 2013, dated 2016)
